ChEMBL document CHEMBL3091440, “Heptaoxygenated xanthones as anti-austerity agents from Securidaca longepedunculata” (2013)
Active and inactive are the calls of the source. The rule behind the calls is not given here.

Assays:
PANC-1 [1] = experiment: (§1) Cytotoxicity against human PANC1 cells assessed as cell viability after 24 hrs by WST8 assay; assay type: functional
[2] = as §1; assay type: functional, PANC-1
PANC-1 [3] = experiment: Induction of apoptosis in human PANC1 cells at 50 uM after 24 hrs by phase contrast microscopy; assay type: functional, cell-based
PANC-1 [4] = experiment: Induction of apoptosis in human PANC1 cells grown in glucose deprived medium after 24 hrs by phase contrast microscopy; assay type: functional, cell-based
PANC-1 [5] = experiment: Induction of apoptosis in human PANC1 cells at 50 uM after 24 hrs by Annexin V/propidium iodide staining-based fluorescence microscopy; assay type: functional, cell-based
PANC-1 [6] = experiment: Induction of apoptosis in human PANC1 cells grown in glucose/amino acid deprived medium after 24 hrs by phase contrast microscopy; assay type: functional, cell-based

| Compound | Activity (PANC-1 [1]) | PC50 [2] | Activity (PANC-1 [3]) | Activity (PANC-1 [4]) | Activity (PANC-1 [5]) | Activity (PANC-1 [6]) |
| --- | --- | --- | --- | --- | --- | --- |
| COc1cc(O)c2c(=O)c3c(OC)cc(OC)cc3oc2c1 | Dose-dependent effect | >100 µM |  |  |  |  |
| COc1c(OC)c(OC)c2c(=O)c3c(O)cc(O)c(OC)c3oc2c1O | Dose-dependent effect | >100 µM |  |  |  |  |
| COc1cc(OC)c2c(=O)c3c(OC)c(OC)ccc3oc2c1OC | Dose-dependent effect | 93.6 µM |  |  |  |  |
| COc1cc2oc3cccc(OC)c3c(=O)c2cc1OC | Dose-dependent effect | >100 µM |  |  |  |  |
| O=c1c2ccc(O)cc2oc2cccc(O)c12 | Dose-dependent effect | >100 µM |  |  |  |  |
| COc1ccc2oc3cccc(O)c3c(=O)c2c1 | Dose-dependent effect | 42.7 µM |  |  |  |  |
| COc1ccc2oc3cc(O)cc(OC)c3c(=O)c2c1OC | Dose-dependent effect | >100 µM |  |  |  |  |
| COc1cc(O)c2c(=O)c3c(OC)c(O)ccc3oc2c1OC | Dose-dependent effect | 87.4 µM |  |  |  |  |
| COc1cccc(C(=O)c2ccc(O)cc2O)c1 | Dose-dependent effect | >100 µM |  |  |  |  |
| COc1c(O)cccc1C(=O)OCc1ccccc1 | Dose-dependent effect | >100 µM |  |  |  |  |
| COc1c(O)ccc(C(=O)c2ccccc2)c1O | Dose-dependent effect | >100 µM |  |  |  |  |
| COc1c(OC)c(O)c2c(=O)c3c(OC)cc(O)c(OC)c3oc2c1OC | Dose-dependent effect | 17.4 µM | inactive | Dose-dependent effect | Active |  |
| COc1cc(O)c2c(=O)c3cc(O)ccc3oc2c1 | Dose-dependent effect | >100 µM |  |  |  |  |
| COc1cc(OC)c2c(=O)c3ccc(O)c(O)c3oc2c1 | Dose-dependent effect | >100 µM |  |  |  |  |
| COc1cc(O)c2c(=O)c3c(OC)c4c(c(OC)c3oc2c1OC)OCO4 | Dose-dependent effect | 78.1 µM |  |  |  |  |
| COc1cc(OC)c(C(=O)c2ccccc2)cc1OC | Dose-dependent effect | >100 µM |  |  |  |  |
| COc1cc(C[C@H]2C(=O)OC[C@@H]2Cc2ccc(OC)c(OC)c2)ccc1O [ARCTIGENIN] |  | 0.5 µM |  |  |  |  |
| COc1ccc2oc3ccc(O)c(OC)c3c(=O)c2c1O | Dose-dependent effect | 51.4 µM |  |  |  |  |
| COc1c(C(=O)c2ccccc2)ccc2c1OCO2 | Dose-dependent effect | >100 µM |  |  |  |  |
| COc1c(O)ccc(C(=O)c2ccccc2)c1OC | Dose-dependent effect | 81.3 µM |  |  |  |  |
| COc1cc(OC)c2c(=O)c3ccc(O)c(OC)c3oc2c1 | Dose-dependent effect | 93.1 µM |  |  |  |  |
| COc1cc(O)c2c(=O)c3c(OC)c(OC)c(OC)c(O)c3oc2c1OC | Dose-dependent effect | >100 µM |  |  |  |  |
| COc1c(OC)c(O)c2c(=O)c3c(O)cc(O)c(OC)c3oc2c1OC | Dose-dependent effect | 22.7 µM | inactive |  | Active | Dose-dependent effect |
| CC(=O)O[C@H]1C(=O)[C@@]2(C)[C@H]([C@H](OC(=O)c3ccccc3)[C@]3(O)C[C@H](OC(=O)[C@H](O)[C@@H](NC(=O)c4ccccc4)c4ccccc4)C(C)=C1C3(C)C)[C@]1(OC(C)=O)CO[C@@H]1C[C@@H]2O [PACLITAXEL] |  | >100 µM |  |  |  |  |
| COc1cccc(O)c1C(=O)O | Dose-dependent effect | >100 µM |  |  |  |  |
| COc1c(O)cc2oc3ccccc3c(=O)c2c1O | Dose-dependent effect | 81.2 µM |  |  |  |  |
| COc1cc(OC)c2c(=O)c3c(OC)c(O)ccc3oc2c1 | Dose-dependent effect | >100 µM |  |  |  |  |
| COc1cc(O)c2c(=O)c3c(OC)c(OC)ccc3oc2c1OC | Dose-dependent effect | 73.3 µM |  |  |  |  |
| O=c1c2ccc(O)c(O)c2oc2cccc(O)c12 | Dose-dependent effect | >100 µM |  |  |  |  |
| COc1cccc(O)c1C(=O)OCc1ccccc1 | Dose-dependent effect | >100 µM |  |  |  |  |
